Article PMC9993459, “A novel selective spleen tyrosine kinase inhibitor SKI-O-703 (cevidoplenib) ameliorates lupus nephritis and serum-induced arthritis in murine models” (Clinical and Experimental Immunology, 2022)

Columns and labels:
[1] = target: KOR; experiment: Kinase assay (LANCE Ultra TR-FRET), KOR; type: biochemical; details: kinase activity, TR-FRET
Protocol: Kinase assays were conducted in 384-well plates using LANCE ultra 66 time-resolved fluorescence resonance energy transfer (TR-FRET) methods, according to the manufacturer’s instructions (Perkin-Elmer). In brief, each kinase was pre-incubated with a serially diluted compound for 30 min, incubated with ULight poly-GT peptide substrate and ATP for up to 1 h. Thirty minutes after adding Eu-labeled anti-phosphopeptides Ab diluted in LANCE Detection Buffer, LANCE signals were measured with an EnVision multilabel reader (Perkin-Elmer).

[2] = test system: human primary B cells; experiment: IgM, IgG and IL-6 secretion by stimulated human primary B cells (ELISA); type: cell-based; details: human primary B cells
Protocol: Human CD19^+ B cells (Lonza) were pre-treated with inhibitors for 1 h and stimulated for 24 h with 50 nM CpG ODN 2006 plus 10 ng/ml IL-2 or 1 μM CpG ODN 2006 plus 20 ng/ml IFN-α. Culture supernatants were assayed by ELISA to detect secreted IgG, IgM, and IL-6, according to the manufacturer’s instructions.
(§1) Figure 2: in vitro effects of SKI-O -703 on the proliferation, survival, and differentiation of B cells. Mouse primary B cells were labeled with CP670, and stimulated with either anti-IgM mAb, CD40L and IL-4 (A) or LPS (B) for 72 h in the presence or absence of SKI-O-703 and tofacitinib at the indicated concentrations; they were then assayed by FACS. (C and D) Mouse primary B cells were cultured as in A and B for 24 h, stained with Annexin V and 7-AAD, and assayed by FACS. Representative FACS profiles and graphs displaying mean Annexin V-positivity are shown. (E) Human primary B cells were stimulated with CpG ODN plus IL-2 (to detect IgM and IgG) or CpG ODN 2006 plus IFN-α (to detect IL-6) in the presence or absence of inhibitors. The culture supernatants were assayed by ELISA. Graphs are expressed as % positivity relative to the controls (without inhibitor). The data are representative of 2–3 independent experiments. *P < 0.05, **P < 0.01, and ***P < 0.001, compared with vehicle control by two-tailed unpaired Students t-tests.

[3] = test system: mouse primary B cells; experiment: CP670-dilution proliferation assay, BCR crosslinking (anti-IgM) stimulated B cells; type: cell-based; details: up to 1 μM
Protocol: Splenic CD19^+ B cells from C57BL/6 mice were sorted by MACS (Milteny Biotec), stained with 3 μM cell proliferation dye eFluor 670 (CP670; eBioscience), and cultured for 72 h in the presence of either 10 μg/ml LPS (Sigma Aldrich) or 5 μg/ml anti-mouse IgM (Jackson Immuno Research Laboratories), 10 μg/ml anti-CD40 mAb (Biolegend) and 10 ng/ml IL-4 (Peprotech), and assayed by FACS. To detect apoptotic cells, unstimulated cells were cultured for 24 h, stained with Annexin V and 7-aminoactinomycin D (7-AAD), and assayed by FACS.
as §1, with “The data are representative of 2–3 independent experiments. *P < 0.05, **P < 0.01, and ***P < 0.001, compared with vehicle control by two-tailed unpaired Students t-tests.” left out

[4] = test system: NZB/W F1 mice; experiment: NZB/W mouse model of SLE / lupus nephritis, oral dosing; type: in vivo; details: 30 mpk oral once daily
Protocol: NZB/W female mice aged 18 weeks were assigned to four groups by distributing mice by body weight and anti-dsDNA IgG titer equivalently across the groups. Each group of mice was administered orally with 42 mg per kg body weight (mpk) of SKI-O-703 dissolved in 50 mM citric acid, 84 mpk of SKI-O-703, 30 mpk of tofacitinib (Selleckchem) dissolved in 0.5% carboxymethyl cellulose (Sigma Aldrich) containing 0.025% Tween 20, or a mixture of the two vehicles. The drugs were given once daily up to 34 weeks of age. Body weight was measured every 2 weeks and serum was collected every 4 weeks. At the termination of the experiments (34 weeks of age), serum, urine, spleen, BM, and kidneys were removed post mortem and assayed by histopathological and biochemical methods as below. Levels of blood urea nitrogen (BUN) and creatinine were measured by Knotus (Incheon, Korea).
Kidneys removed from the NZB/W mice were fixed in 4% paraformaldehyde, embedded in paraffin, sectioned at 3 μm thickness, and stained with periodic acid-Schiff (PAS) and hematoxylin (Sigma Aldrich). […] Glomerular size was measured using Image J software. To assess the glomerular size and hypercellularity of each mouse, more than 20 glomeruli per mouse were individually examined and averaged.
Kidneys and spleens of NZB/W mice were embedded in OCT compound (Sakura Finetek, Torrance, CA, USA) and snap-frozen in liquid nitrogen. Frozen sections were fixed in acetone and blocked with 10% normal donkey serum (Sigma Aldrich). Kidney sections were stained with a 1:200 dilution of anti-IgG-biotin (Sigma Aldrich), anti-IgM-biotin (Southern Biotech) and anti-C3-biotin (Bioss), followed by reaction with 1:200-dilution of streptavidin-cy3 (Invitrogen). Spleen sections were stained with anti-GL7-FITC, anti-CD4-APC, and anti-IgD-PE (all from BD Biosciences or eBioscience). Fluorescence images were acquired using a TCS SP5 confocal microscope (Leica). The area of GCs composed with GL7^+ cells per image was calculated using ImageJ software (NIH, Bethesda, MD, USA).
Titers of anti-dsDNA IgG Ab were measured by ELISA, as described previously. In brief, sera were diluted 1/10 000 to 1/50 000 in PBS and applied to immunosorbent plates (Nunc) precoated with 5 μg/ml poly-L-lysine and 5 μg/ml thymic DNA (Sigma Aldrich). The serum containing the highest titer of anti-dsDNA IgG was serially diluted and used as standard. The plates were incubated with anti-mouse IgG-biotin (Sigma Aldrich) and streptavidin-HRP (BD Biosciences). The concentration of albumin in urine was measured by quantitative ELISA using a mouse albumin ELISA kit (Bethyl), according to the manufacturer’s instructions. The concentration of serum B-cell activating factor of the TNF family (BAFF) was quantitated using a BAFF/BLys/TNFSF13B ELISA Kit (R&D Systems).
Single-cell suspensions of spleen and LN cells were prepared as previously described. Joint tissues from hind paws of KSTA mice were dissected free of soft tissue and bones, digested with 100 μg/ml Liberase (Roche) for 45 min at 37 °C, and filtered through a 70-μm-pore cell strainer (SPL Life Sciences) to prepare single cell suspensions of synovial infiltrates. The single cell suspensions were stained with an appropriate combination of mAbs and analyzed by FACS. The mAbs used were: CD138-PE, B220-PerCP or -APC-cy7, FAS-PE, CD19-PerCP or -APC, CD21-FITC or -APC, CD43-APC, CD23-PE-cy7, CD8a-PE, CD25-APC-cy7, CXCR5-biotin, GL7-FITC, CD45.2-FITC, CD27-FITC, Ki-67-FITC, Gr-1-FITC, CD4-FITC or -APC-cy7, phospho-Syk-PE, CD11b-PE or -PerCP, PD-1-APC, CD44-APC-cy7, and F4/80-PerCP mAbs (all from BD Biosciences, eBioscience or Biolegend). Streptavidin-PerCP was purchased from BD Biosciences.
Splenic CD19^+ B cells from NZB/W mice were sorted by MACS, and lysed with Trizol reagent (Invitrogen) followed by standard methods of total RNA purification. The RNA was assayed by RT and quantitative PCR as described. […]

SMILES	IC50 [1] [nM]	IL-6 production ([2]; CpG ODN 2006 plus IFN-α)	Ab production ([2]; CpG ODN plus IL-2)	Proliferation and death of primary B and T cells [3]	Body weights ([4]; 18-34 weeks of age)	Spleen weights ([4]; 18-34 weeks of age)	Serum anti-dsDNA IgG Ab titer ([4]; trend to reduction at 26 and 30 weeks of age)
COc1cc(Nc2ncc(F)c(Nc3ccc4c(n3)NC(=O)C(C)(C)O4)n2)cc(OC)c1OC [R406, reference compound]	18.8						
C[C@@H]1CCN(C(=O)CC#N)C[C@@H]1N(C)c1ncnc2[nH]ccc12 [tofacitinib, reference compound]		even increased IL-6 production	minimal effect	did not significantly inhibit	reduced both body weights and spleen weights	reduced both body weights and spleen weights	did not reach statistical significance
